# Tests used:
# [1] = system: MELOE-136-44-specific CD8 T cells within PBMC; test: In vitro PBMC stimulation with SLP, tetramer/CD8 staining of microcultures (MELOE-1); format: cell-based, human
# Protocol: At day 0, PBMCs were plated in 96 wells at 2×10^5 cells/wells in RMPI 1640 medium containing 8% human serum, 50 IU/mL II-2 (Proleukin, Novartis) and stimulated with 5-10 μM of various SLP tested. Medium was supplemented following the acDC protocol (Martinuzzi et al., 2011) by addition of 1000 U/mL of GM-CSF (CellGenix) and 500 UI/ml of II-4 (CellGenix). After 24 hours TNF-a (1000 IU/mL), IL-1β (10 ng/mL) and prostaglandin E2 (1 μM) (R&D Systems, Minneapolis, USA) were added as DC maturation agents. After 21 days, the percentage of microcultures containing specific CD8+ T cells was evaluated by surface staining with anti-CD8 mAb and tetramer staining (HLA A*0201-MELOE-136-44 (SEQ ID NO:31) or MelanAA27L26-35. SEQ ID NO:64) (recombinant protein facility, P2 R, Nantes). Comparison of a number of positive microcultures after stimulation with aSLP in each subject was evaluated by Fisher's exact test and as a group using paired t-test (α=0.5%).
# We next tested the ability of SLP containing MELOE-113-27 (SEQ ID NO:21) and MELOE-136-44 (SEQ ID NO:31) with linkers GGGG (SEQ ID NO:160), LLSV (SEQ ID NO:4), or LLSVGG (SEQ ID NO:9) to reactivate and expand CD8 specific T cells within PBMC from HLA-A*0201 healthy donors in vitro. For this purpose, PBMC were treated for 24 h with GMCSF and IL-4 to accelerate the differentiation of monocytes into DC together with SLP at 5 μM and then TNF-a, IL-1b and PGE2 were added as maturation agents as previously described (see M&M). After 21 days, the percentage of CD8 specific T cells in each microculture was assessed by tetramer staining. […] The summary of all the experiments performed is presented on table 2. […] We next assessed our optimal linker LLSVGG using PBMC from seven healthy donors and two melanoma patients. Within this group, one healthy donor and one patient were excluded from the analysis for lack of any T cell response against MELOE-1. […] To further confirm this observation, we tested the cross presentation of the SLP containing Melan-A A271. (SEQ ID NO:64) epitope instead of MELOE-136-44 (SEQ ID NO:31) with linkers GGGG (SEQ ID NO:160) or LLSVGG (SEQ ID NO:9).
# SARC-A2-MELOE-1 cells = test: Anti-tumor vaccination with aSLP; format: in vivo, A2/DR1 mice; conditions: day 36, threshold 50 mm^2; prime 100 μg day 6 plus adjuvant, boost 14 days later; 0/7 in untreated, p=0.0513
# Protocol: The SARC-L1 cell line which spontaneously occurred in A2/DR1 mice was genetically modified to over-express HLA-A*0201 as previously described (Rangan et al Oncotarget, 2017). SARC-A2 cells were then transduced with a gammaretroviral dicistronic vector encoding the whole MELOE-1 antigen and, downstream of an IRES element, a puromycin N-acetyltransferase allowing selection of the transduced cells with puromycin (5 μg/mL). HLA-A*0201 expression was checked by flow cytometry. The capacity of the MELOE-1-transduced SARC-A2 (SARC-A2-MELOE-1) cells to present the A2-restricted MELOE-1 epitope was confirmed by their recognition by an HLA-A*0201-restricted T cell clone (data not shown).
# A2/DR1 mice were subcutaneously injected with 2×10^5 SARC-A2-MELOE-1 cells in 100 μl in the right flank. The first vaccination with aSLP (100 μg in IFA, as above) or adjuvant alone or PBS started when tumor became detectable (around 10 mm2). […] Tumor growth was evaluated twice a week using a caliper and mice were euthanized when their tumor exceeded 300 mm^2. The efficiency of anti-tumor vaccination was evaluated by Fisher's exact test (α=0.5%).
# To evaluate the anti-tumor potential of vaccination with aSLP, we used the previously described SARC-A2 cell line transduced with a cDNA encoding the whole MELOE-1 antigen. […] Mice were monitored until the end point at day 36. […]
sequence,measurement,setting,value
TSREQFLPSEGAACPPWLLSVGGTLNDECWPASL (Synthetic SLP) [SEQ ID NO: 87],specific responses reactivated compared with aSLP containing the linker GGGG,"[1]; PBMC from six healthy donors and one melanoma patient, p=0.004, paired t-test, FIG. 6C",significantly more specific responses
same,"CD8 responses, positive microcultures, HD5","[1]; healthy donor HD5, 96 microcultures, SLP 5 μM, 21 days",16/96
same,mice in which tumor growth was inhibited,SARC-A2-MELOE-1 cells,4/8

# Reference: patent publication US12144851B2, “Vaccinal strategy” (INSERM (INSTITUT NATIONAL DE LA SANTÉ ET DE LA RECHERCHE …, priority 2018, dated 2024)
